Here are results for seven cell lines from the supplement of paper PMC10307832.

Experiment in all cases: relative viability (nuclei count vs DMSO), 5 days (fraction); higher = more cells survive
Compound in experiment [1]: CO[C@H]1C[C@@H]2CC[C@@H](C)[C@@](O)(O2)C(=O)C(=O)N2CCCC[C@H]2C(=O)O[C@H]([C@H](C)C[C@@H]2CC[C@@H](OCCO)[C@H](OC)C2)CC(=O)[C@H](C)/C=C(\C)[C@@H](O)[C@@H](OC)C(=O)[C@H](C)C[C@H](C)/C=C/C=C/C=C/1C [Everolimus] + COc1cc2c(Oc3ccc(NC(=O)C4(C(=O)Nc5ccc(F)cc5)CC4)cc3F)ccnc2cc1OCCCN1CCOCC1 [Foretinib] (partner 0.25 µM)
In outline: (§1)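 Relative viability equals treated-well nuclei counts divided by vehicle-well nuclei counts. Counts came from 4× images of lung cancer cell lines grown in 1536-well plates for 5 days after pin-tool dosing on the day after seeding. Dosing used one drug alone or a fixed anchor-drug dose plus five library-drug doses (not always all listed) in √10 steps, and values are medians of duplicate plates.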

Compound in experiment [2]: CO[C@H]1C[C@@H]2CC[C@@H](C)[C@@](O)(O2)C(=O)C(=O)N2CCCC[C@H]2C(=O)O[C@H]([C@H](C)C[C@@H]2CC[C@@H](OCCO)[C@H](OC)C2)CC(=O)[C@H](C)/C=C(\C)[C@@H](O)[C@@H](OC)C(=O)[C@H](C)C[C@H](C)/C=C/C=C/C=C/1C [Everolimus] + Cc1nc(NC(=O)N2CCC[C@H]2C(N)=O)sc1-c1ccnc(C(C)(C)C(F)(F)F)c1 [Alpelisib] (partner 2 µM)
The method in brief: as §1

Compound in experiment [3]: CO[C@H]1C[C@@H]2CC[C@@H](C)[C@@](O)(O2)C(=O)C(=O)N2CCCC[C@H]2C(=O)O[C@H]([C@H](C)C[C@@H]2CC[C@@H](OCCO)[C@H](OC)C2)CC(=O)[C@H](C)/C=C(\C)[C@@H](O)[C@@H](OC)C(=O)[C@H](C)C[C@H](C)/C=C/C=C/C=C/1C [Everolimus] + Nc1nc2[nH]cc(CCc3ccc(C(=O)N[C@@H](CCC(=O)O)C(=O)O)cc3)c2c(=O)[nH]1 [Pemetrexed] (partner 0.2 µM)
In outline:
as §1

Compound in experiment [4]: CO[C@H]1C[C@@H]2CC[C@@H](C)[C@@](O)(O2)C(=O)C(=O)N2CCCC[C@H]2C(=O)O[C@H]([C@H](C)C[C@@H]2CC[C@@H](OCCO)[C@H](OC)C2)CC(=O)[C@H](C)/C=C(\C)[C@@H](O)[C@@H](OC)C(=O)[C@H](C)C[C@H](C)/C=C/C=C/C=C/1C [Everolimus] + O=C(c1cc(Cc2n[nH]c(=O)c3ccccc23)ccc1F)N1CCN(C(=O)C2CC2)CC1 [Olaparib] (partner 8 µM)
The method in brief: as §1

On to LOU-NH91, for which the relative viability came to 0.853 in experiment [1] (first compound 0.01 µM); 0.793 in experiment [1] (first compound 0.03162 µM); 0.712 in experiment [1] (first compound 0.1 µM); 0.746 in experiment [1] (first compound 0.3162 µM); 0.691 in experiment [1] (first compound 1 µM); 0.64 in experiment [2] (first compound 0.01 µM). Also, the relative viability is 0.551 in experiment [2] (first compound 0.03162 µM); 0.543 in experiment [2] (first compound 0.1 µM); 0.564 in experiment [2] (first compound 0.3162 µM); 0.52 in experiment [2] (first compound 1 µM); 0.477 in experiment [3] (first compound 0.01 µM); 0.467 in experiment [3] (first compound 0.03162 µM). Further, the relative viability was determined as 0.394 in experiment [3] (first compound 0.1 µM); 0.418 in experiment [3] (first compound 0.3162 µM); 0.485 in experiment [3] (first compound 1 µM); 0.744 in experiment [4] (first compound 0.01 µM); 0.829 in experiment [4] (first compound 0.03162 µM); 0.789 in experiment [4] (first compound 0.1 µM). Moreover, the relative viability in experiment [4] (first compound 0.3162 µM) was 0.788; in experiment [4] (first compound 1 µM), 0.777.
LU99A: the relative viability in experiment [1] (first compound 0.01 µM) is 0.52; in experiment [1] (first compound 0.03162 µM), 0.565; in experiment [1] (first compound 0.1 µM) it was 0.525; in experiment [1] (first compound 0.3162 µM), 0.519; in experiment [1] (first compound 1 µM), 0.605; in experiment [2] (first compound 0.01 µM) it was 0.284. For the same cell line, the relative viability in experiment [2] (first compound 0.03162 µM) turned out to be 0.278; in experiment [2] (first compound 0.1 µM) it was 0.294; in experiment [2] (first compound 0.3162 µM), 0.259; in experiment [2] (first compound 1 µM), 0.315; in experiment [3] (first compound 0.01 µM), 0.206; in experiment [3] (first compound 0.03162 µM) it was 0.24. Also, the relative viability in experiment [3] (first compound 0.1 µM) worked out at 0.248; in experiment [3] (first compound 0.3162 µM), 0.189; in experiment [3] (first compound 1 µM) it was 0.254; in experiment [4] (first compound 0.01 µM), 0.246; in experiment [4] (first compound 0.03162 µM), 0.21; in experiment [4] (first compound 0.1 µM), 0.226. For the same cell line, the relative viability was 0.216 in experiment [4] (first compound 0.3162 µM) and 0.236 in experiment [4] (first compound 1 µM).
Turning to NCI-H1395, the relative viability is 0.901 in experiment [1] (first compound 0.01 µM); 0.683 in experiment [1] (first compound 0.03162 µM); 0.727 in experiment [1] (first compound 0.1 µM); 0.617 in experiment [1] (first compound 0.3162 µM); 0.627 in experiment [1] (first compound 1 µM); 0.787 in experiment [2] (first compound 0.01 µM). The relative viability in experiment [2] (first compound 0.03162 µM) was determined as 0.813; in experiment [2] (first compound 0.1 µM) it was 0.722; in experiment [2] (first compound 0.3162 µM), 0.759; in experiment [2] (first compound 1 µM), 1.08; in experiment [3] (first compound 0.01 µM) it was 0.595; in experiment [3] (first compound 0.03162 µM), 0.571. Moreover, the relative viability in experiment [3] (first compound 0.1 µM) worked out at 0.693; in experiment [3] (first compound 0.3162 µM), 0.693; in experiment [3] (first compound 1 µM), 0.7; in experiment [4] (first compound 0.01 µM), 0.405; in experiment [4] (first compound 0.03162 µM), 0.423; in experiment [4] (first compound 0.1 µM), 0.377. Further, the relative viability turned out to be 0.401 in experiment [4] (first compound 0.3162 µM) and 0.379 in experiment [4] (first compound 1 µM).
NCI-H460: the relative viability came to 1.01 in experiment [1] (first compound 0.01 µM); 1.01 in experiment [1] (first compound 0.03162 µM); 0.969 in experiment [1] (first compound 0.1 µM); 0.942 in experiment [1] (first compound 0.3162 µM); 1.11 in experiment [1] (first compound 1 µM); 0.22 in experiment [2] (first compound 0.01 µM). The relative viability in experiment [2] (first compound 0.03162 µM) came to 0.298; in experiment [2] (first compound 0.1 µM), 0.199; in experiment [2] (first compound 0.3162 µM) it was 0.271; in experiment [2] (first compound 1 µM) it was 0.168; in experiment [3] (first compound 0.01 µM) it was 0.058; in experiment [3] (first compound 0.03162 µM), 0.0669. The relative viability in experiment [3] (first compound 0.1 µM) came out at 0.0635; in experiment [3] (first compound 0.3162 µM), 0.0608; in experiment [3] (first compound 1 µM), 0.072; in experiment [4] (first compound 0.01 µM) it was 0.44; in experiment [4] (first compound 0.03162 µM), 0.407; in experiment [4] (first compound 0.1 µM), 0.4. Also, the relative viability stood at 0.403 in experiment [4] (first compound 0.3162 µM) and 0.422 in experiment [4] (first compound 1 µM).
201T: the relative viability in experiment [1] (first compound 0.01 µM) was 0.996; in experiment [1] (first compound 0.03162 µM), 0.913; in experiment [1] (first compound 0.1 µM) it was 0.895; in experiment [1] (first compound 0.3162 µM) it was 0.795; in experiment [1] (first compound 1 µM), 0.865; in experiment [2] (first compound 0.01 µM), 0.919. Besides, the relative viability in experiment [2] (first compound 0.03162 µM) was determined as 0.893; in experiment [2] (first compound 0.1 µM), 0.859; in experiment [2] (first compound 0.3162 µM), 0.847; in experiment [2] (first compound 1 µM), 0.893; in experiment [3] (first compound 0.01 µM), 0.365; in experiment [3] (first compound 0.03162 µM), 0.383. In addition, the relative viability in experiment [3] (first compound 0.1 µM) was 0.32; in experiment [3] (first compound 0.3162 µM) it was 0.307; in experiment [3] (first compound 1 µM), 0.317; in experiment [4] (first compound 0.01 µM) it was 0.716; in experiment [4] (first compound 0.03162 µM), 0.802; in experiment [4] (first compound 0.1 µM) it was 0.724. The relative viability was found to be 0.786 in experiment [4] (first compound 0.3162 µM) and 0.783 in experiment [4] (first compound 1 µM).
As to NCI-H1944, the relative viability in experiment [1] (first compound 0.01 µM) was 0.572; in experiment [1] (first compound 0.03162 µM), 0.583; in experiment [1] (first compound 0.1 µM) it was 0.608; in experiment [1] (first compound 0.3162 µM) it was 0.629; in experiment [1] (first compound 1 µM) it was 0.658; in experiment [2] (first compound 0.01 µM) it was 0.592. The relative viability in experiment [2] (first compound 0.03162 µM) worked out at 0.565; in experiment [2] (first compound 0.1 µM), 0.593; in experiment [2] (first compound 0.3162 µM) it was 0.564; in experiment [2] (first compound 1 µM) it was 0.562; in experiment [3] (first compound 0.01 µM), 0.497; in experiment [3] (first compound 0.03162 µM) it was 0.545. Further, the relative viability in experiment [3] (first compound 0.1 µM) amounted to 0.393; in experiment [3] (first compound 0.3162 µM), 0.489; in experiment [3] (first compound 1 µM), 0.404; in experiment [4] (first compound 0.01 µM) it was 0.389; in experiment [4] (first compound 0.03162 µM), 0.329; in experiment [4] (first compound 0.1 µM) it was 0.325. In addition, the relative viability was 0.35 in experiment [4] (first compound 0.3162 µM) and 0.351 in experiment [4] (first compound 1 µM).
As to NCI-H2405, the relative viability in experiment [1] (first compound 0.01 µM) is 0.973; in experiment [1] (first compound 0.03162 µM), 0.857; in experiment [1] (first compound 0.1 µM), 0.763; in experiment [1] (first compound 0.3162 µM) it was 0.809; in experiment [1] (first compound 1 µM) it was 0.781; in experiment [2] (first compound 0.01 µM), 0.452. Further, the relative viability in experiment [2] (first compound 0.03162 µM) was 0.475; in experiment [2] (first compound 0.1 µM), 0.372; in experiment [2] (first compound 0.3162 µM) it was 0.444; in experiment [2] (first compound 1 µM), 0.469; in experiment [3] (first compound 0.01 µM) it was 0.796; in experiment [3] (first compound 0.03162 µM), 0.825. Moreover, the relative viability in experiment [3] (first compound 0.1 µM) was 0.671; in experiment [3] (first compound 0.3162 µM) it was 0.726; in experiment [3] (first compound 1 µM), 0.825; in experiment [4] (first compound 0.01 µM), 0.757; in experiment [4] (first compound 0.03162 µM) it was 0.745; in experiment [4] (first compound 0.1 µM), 0.681. Moreover, the relative viability in experiment [4] (first compound 0.3162 µM) came to 0.713; in experiment [4] (first compound 1 µM), 0.686.
